According to publication PMC11375786, “Induction of Paraptotic Cell Death in Cancer Cells by Triptycene–Peptide Hybrids and the Revised Mechanism of Paraptosis II” (Biochemistry, 2024):
Like-named read-outs stand apart in the source and are kept apart here. Numbered stars: 1 amine (or outer) side, 2 acyl side, 3 side chain; on linkers, the order of the positions; unused ones are H or OH. Bridge positions count the residues as written; N and C are the ends. Square brackets hold non-standard residues; d marks the D form. Peptide text beside a SMILES is read from it. I, II: the chains in the order shown. X1 = O=C(COc1cccc2c1C1c3c(OCC(=O)NCCCCCCCCN[*:2])cccc3C2c2cccc(OCC(=O)NCCCCCCCCN[*:3])c21)NCCCCCCCCN[*:1]; Cha = N[C@@H](CC1CCCCC1)C(=O)O

Legend:
Jurkat cells [1] = experiment: MTT assay of Jurkat cells treated with 4 or celastrol in the presence of inhibitors; type: cell-based; conditions: 4 2.5 μM 1 h; Z-VAD-fmk 15 μM, necrostatin-1 30 μM, 3-MA 10 μM, CCCP 40 μM, DIDS 75 or 100 μM, 2-APB 50 or 100 μM, RuRed 75 μM
Method: (a) Jurkat cells: Jurkat cells (2.0 × 10^5 cells/mL) in RPMI 1640 medium with 10% FBS were pretreated with the inhibitors (Z-VAD-fmk (final concentration = 15 μM), necrostatin-1 (final concentration = 30 μM), 3-MA (final concentration = 10 μM), and DIDS (75 or 100 μM)) for 3 h or pretreated with other inhibitors (CCCP (40 μM), FCCP (40 μM), 2-APB (50 or 100 μM) and RuRed (75 μM)) for 1 h under 5% CO2 at 37 °C. After incubation, 4 (final concentration = 2.5 μM) was added to the cell suspension, which was then incubated for 1 h at 37 °C. To test the effect of celastrol, the cells were pretreated with the aforementioned inhibitors and then incubated with celastrol (5 μM) for 24 h. MTT reagent (5 mg/mL) in PBS (10 μL) was added to the cells. After incubation at 37 °C for 4 h, a formazan lysis solution (10% sodium dodecyl sulfate (SDS) in 0.01 N HCl) (100 μL) was added, and the resultant solution was incubated overnight under the same conditions, followed by measurement of the absorbance at 570 nm using a microplate reader (ARVO, PerkinElmer).

HeLa-S3 cells [2] = experiment: MTT assay of HeLa-S3 cells treated with 4 or celastrol in the presence of inhibitors; type: cell-based, human; conditions: 4 5 μM 1 h; Z-VAD-fmk 100 μM, necrostatin-1 100 μM, 3-MA 5 mM, CCCP 160 μM, DIDS 75 or 100 μM
Method: (b) HeLa-S3 cells: HeLa-S3 cells (2.0 × 10^5 cells/mL) in MEM medium with 10% FBS were pretreated with the inhibitors (3-MA (5 mM), and DIDS (75 or 100 μM)) for 3 h or pretreated with other inhibitors (Z-VAD-fmk (100 μM), necrostatin-1 (100 μM), CCCP (160 μM), and FCCP (80 μM)) for 1 h under 5% CO2 at 37 °C. After the incubation, 4 (final concentration = 5 μM) was added to the cell suspension, which was then incubated for 1 h at 37 °C. Subsequent procedures were the same as those used for the Jurkat cells.

A549 cells [3] = experiment: MTT assay of A549 cells treated with 4 or celastrol in the presence of inhibitors; type: cell-based, human; conditions: 4 10 μM 1 h; Z-VAD-fmk 100 μM, necrostatin-1 100 μM, 3-MA 1 mM, CCCP 250 μM, DIDS 250 μM
Method: (c) A549 cells: A549 cells (2.0 × 10^5 cells/mL) in DMEM medium with 10% FBS were pretreated with the inhibitors (3-MA (1 mM), and DIDS (250 μM)) for 3 h or pretreated with other inhibitors (Z-VAD-fmk (100 μM), necrostatin-1 (100 μM), CCCP (250 μM), and FCCP (10 μM)) for 1 h under 5% CO2 at 37 °C. After incubation, 4 (final concentration = 10 μM) was added to the cell suspension, which was then incubated for 1 h at 37 °C. Subsequent procedures were the same as those used for the Jurkat cells.

Jurkat cells [4] = experiment: Costaining of ER and mitochondria (ERTracker Red, MitoTracker Green), confocal microscopy, Jurkat cells; type: cell-based; conditions: 4 2.5 μM, CCCP 40 μM
Method: (§1) Jurkat, HeLa-S3, A549, and IMR90 cells (2.0 × 10^5 cells) were incubated with 4 (final concentration = 2.5 μM (for Jurkat), 5 μM (for HeLa-S3), 10 μM (for A549) and 5 μM and 50 μM (for IMR90)) in cell culture medium at 37 °C under 5% CO2. After incubation, MitoTracker Green (final concentration = 100 nM (for Jurkat) or 500 nM (for HeLa-S3, A549 and IMR90)), or ERTracker Red (final concentration = 500 nM (for Jurkat) or 1 μM (for HeLa-S3, A549 and IMR90)) were applied for 1 h under the same conditions. After washing with PBS, the cells were observed via confocal fluorescence microscopy (FluoView, FV-1000, Olympus). Excitation at 473 nm and emissions from 485 to 585 nm were used for detecting the MitoTracker Green. Excitation at 559 nm and emissions from 570 to 670 nm were used for detecting the ERTracker Red. Exposure time was 20 μs/pixel.

A549 cells [5] = experiment: cells
Method: (§2) HeLa S3 cells (human cervical carcinoma) were cultured in Minimum essential medium (MEM) containing 10% FBS, penicillin, and streptomycin. A549 cells (human lung carcinoma) and IMR90 cells (human fetal lung fibroblast) were cultured in Dulbecco’s modified Eagle’s medium (DMEM) with 10% FBS, penicillin, and streptomycin. All cells were cultured at 37 °C under a humidified atmosphere containing 5% CO2.
(§3) Jurkat, HeLa-S3, A549 cells (2.0 × 10^5 cells/mL) and IMR90 cells (1.0 × 10^5 cells/mL) were incubated in the presence of 3–7 for 1 h, and etoposide, cisplatin and celastrol for 24 h (50 μL) in cell culture medium under CO2 at 37 °C in 96-well plates (BD Falcon). MTT reagent (5 mg/mL) in PBS (10 μL) was then added to the cells. After incubation at 37 °C for 4 h, a formazan lysis solution (10% sodium dodecyl sulfate (SDS) in 0.01 N HCl) (100 μL) was added and the resultant solution was incubated overnight under the same conditions, which was followed by measurement of the absorbance at 570 nm using a microplate reader (ARVO, PerkinElmer).

HeLa-S3 cells [6] = experiment: cells; conditions: read-out: EC50 against HeLa-S3 cells
Method: as §2, §3

IMR90 cells = experiment: cells; conditions: read-out: EC50 against IMR90 cells
Method: as §2, §3

Jurkat cells [7] = experiment: cells; conditions: read-out: EC50 against Jurkat cells
Method: as §2, §3

[8] = system: Ca^2+ concentrations in mitochondria and cytosol in HeLa-S3 cells; experiment: Rhod-2/AM and Rhod-4/AM emission (mitochondrial and cytosolic Ca2+) in HeLa-S3 cells; type: cell-based, human; conditions: 4 5 μM 1 h; for Emission of Rhod-2/AM (mitochondrial Ca2+) in HeLa-S3 cells: celastrol or cisplatin 100 μM 2–6 h
Method: (§4) Jurkat, HeLa-S3, and A549 cells (2.0 × 10^5 cells) were preincubated with Rhod-2/AM (final concentration = 5 μM) or Rhod-4/AM (final concentration = 5 μM) in medium under 5% CO2 at 37 °C for 30 min and then treated with 4 (final concentration = 2.5, 5, or 10 μM) for 0, 15, 30, 45, and 60 min. HeLa-S3 and A549 cells were detached by accutase, immediately after which the cells were suspended in 300 μL of cell culture medium and then analyzed on a flow cytometer (FACS Calibur cytometer, Becton), and the data were analyzed using the FlowJo software (FlowJo, LCC).
(§5) Jurkat, HeLa-S3, A549, and IMR90 cells (2.0 × 10^5 cells) were stained with Rhod-2/AM or Rhod-4/AM (final concentration = 5 μM) for 30 min at 37 °C under 5% CO2. The cells were washed with PBS and were treated with 4 (final concentration = 2.5, 5, or 10 μM) in cell culture medium for 30 and 60 min at 37 °C under 5% CO2. To test the effect of celastrol and cisplatin in HeLa-S3 and A549 cells, the cells were incubated with celastrol (final concentration = 100 μM) and cisplatin (final concentration = 100 μM) for 2–6 h. After washing with PBS, the cells were observed via fluorescence microscopy (BZ-X800, Keyence) using a Greiner CELLview Petri dish (35 × 10 mm^2). Emission images were observed using a TRITC filter (excitation 540 nm, emission 605 nm).
(§6) Jurkat, HeLa-S3, A549, and IMR90 cells (8.0 × 10^4 cells) were incubated with CCCP or 2-APB for 1 h and then stained with Rhod-2/AM or Rhod-4/AM (final concentration = 5 μM) for 30 min at 37 °C under 5% CO2. The cells were washed with PBS and were treated with 4 (final concentration = 2.5, 5, or 10 μM) in PBS for 0–60 min at 37 °C in a microplate reader (ARVO, PerkinElmer). Excitation at 540 nm and emission at 590 nm were used for the measurement of Rhod-2/AM and Rhod-4/AM on the microplate reader.

[9] = system: Ca^2+ concentrations in mitochondria and cytosol in A549 cells; experiment: Rhod-2/AM and Rhod-4/AM emission (mitochondrial and cytosolic Ca2+) in A549 cells; type: cell-based, human; conditions: 4 10 μM 1 h; celastrol 100 μM 2–6 h
Method: as §4, §5, §6

HeLa-S3 cells [10] = experiment: Costaining of ER and mitochondria (ERTracker Red, MitoTracker Green), confocal microscopy, HeLa-S3 cells; type: cell-based, human; conditions: 4 5 μM, 5 and 10 min; celastrol 100 μM
Method: as §1

A549 cells [11] = experiment: Costaining of ER and mitochondria (ERTracker Red, MitoTracker Green), confocal microscopy, A549 cells; type: cell-based, human; conditions: 4 10 μM, 15 min; celastrol 100 μM
Method: as §1

[12] = system: labile Fe^2+ in mitochondria of Jurkat cells; experiment: Mito-FerroGreen fluorescence microscopy in Jurkat cells; type: cell-based; conditions: 4 2.5 μM 1 h; celastrol 5 μM, etoposide 5 μM, cisplatin 100 μM 24 h
Method: (§7) Jurkat cells (2.0 × 10^5 cells) were treated with 4 (2.5 μM), etoposide (5 μM), cisplatin (100 μM) and celastrol (5 μM) and stained with Mito-FerroGreen (a probe for labile Fe^2+ in mitochondria) (5 μM) and zinquin (a probe for intracellular Zn^2+) (25 μM). The cell images were observed via fluorescence microscopy.

[13] = system: intracellular Zn^2+ in Jurkat cells; experiment: Zinquin fluorescence microscopy in Jurkat cells; type: cell-based; conditions: 4 2.5 μM 1 h; celastrol 5 μM, etoposide 5 μM, cisplatin 100 μM 24 h
Method: as §7

trypsin = trypsin (Sus scrofa, UniProt P00761); experiment: Stability after treatment with trypsin (RP-HPLC); conditions: 10 μM, trypsin 5 U/mL, 10 mM HEPES pH 7.5, 1 h, 37 °C
Method: 4 and 5 (10 μM) were incubated with trypsin (5 U/mL) in 10 mM 2-[4-(2-hydroxyethyl)-1-piperazinyl]ethanesulfonic acid ((HEPES), pH = 7.5) for 1 h at 37 °C and then analyzed via RP-HPLC (CH3CN (0.1% TFA)/H2O (0.1% TFA) = 20/80 to 70/30 (30 min), 1.0 mL/min).

[14] = MTT, incubation 24 h (etoposide, cisplatin, celastrol)

Chain of trypsin (P00761 9-231): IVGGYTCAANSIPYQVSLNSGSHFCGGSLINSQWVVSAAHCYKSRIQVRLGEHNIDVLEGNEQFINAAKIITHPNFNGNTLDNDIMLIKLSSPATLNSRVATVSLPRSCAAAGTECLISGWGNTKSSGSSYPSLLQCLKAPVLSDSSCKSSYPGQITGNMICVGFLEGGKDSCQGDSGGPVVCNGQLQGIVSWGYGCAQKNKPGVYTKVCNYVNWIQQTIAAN

SMILES: N#CC(C#N)=NNc1cccc(Cl)c1 [CCCP, carbonyl cyanide 3-chlorophenylhydrazone]
- Inhibition of 4-induced cell death in Jurkat cells (Jurkat cells [1]): considerably inhibited
- Inhibition of 4-induced cell death in HeLa-S3 cells (HeLa-S3 cells [2]): considerably inhibited
- Inhibition of 4-induced cell death in A549 cells (A549 cells [3]): considerably inhibited
- Inhibition of the 4-induced overlap of emission from MitoTracker Green and ERTracker Red in Jurkat cells (Jurkat cells [4]): considerably inhibited

SMILES: CC1=C(O)C(=O)C=C2C1=CC=C1[C@@]2(C)CC[C@@]2(C)[C@@H]3C[C@](C)(C(=O)O)CC[C@]3(C)CC[C@]12C [celastrol]
- EC50 (A549 cells [5]; Homo sapiens, A549, read-out: EC50 against A549 cells): 31 ± 2.2 µM
- EC50 (HeLa-S3 cells [6]; Homo sapiens, HeLa S3, 24 h): 22 ± 6 µM
- EC50 (IMR90 cells; Homo sapiens, IMR-90, 24 h): > 25 µM
- EC50 (Jurkat cells [7]; Homo sapiens, Jurkat, 24 h): 0.9 ± 0.1 µM
- Emission of Rhod-4/AM (cytosolic Ca2+) in HeLa-S3 cells ([8]; celastrol 100 μM 2–6 h): mitochondrial and cytoplasmic Ca^2+ overload
- Emission of Rhod-2/AM (mitochondrial Ca2+) in HeLa-S3 cells [8]: mitochondrial and cytoplasmic Ca^2+ overload
- Emission of Rhod-2/AM (mitochondrial Ca2+) in A549 cells [9]: mitochondrial Ca^2+ overload
- Emission of Rhod-4/AM (cytosolic Ca2+) in A549 cells [9]: negligibly changed
- Overlap of emission from MitoTracker Green and ERTracker Red in HeLa-S3 cells (HeLa-S3 cells [10]): weaker overlap
- Overlap of emission from MitoTracker Green and ERTracker Red in A549 cells (A549 cells [11]): weaker overlap
- Emission from Mito-FerroGreen (free Fe2+ in mitochondria) in Jurkat cells [12]: negligibly enhanced
- Emission from zinquin (intracellular free Zn2+) in Jurkat cells [13]: negligibly enhanced

SMILES: N.N.[Cl][Pt][Cl] [cisplatin]
- EC50 (A549 cells [5]; read-out: EC50 against A549 cells, MTT, incubation 24 h (etoposide, cisplatin, celastrol)): > 100 µM
- EC50 (HeLa-S3 cells [6]; [14]): 15 ± 3.4 µM
- EC50 (IMR90 cells; [14]): > 12.5 µM
- EC50 (Jurkat cells [7]; [14]): 5.8 ± 1.4 µM
- Emission of Rhod-2/AM (mitochondrial Ca2+) in HeLa-S3 cells [8]: weak enhancement
- Emission from Mito-FerroGreen (free Fe2+ in mitochondria) in Jurkat cells [12]: increases in both free-Fe^2+ and free-Zn^2+
- Emission from zinquin (intracellular free Zn2+) in Jurkat cells [13]: increases in both free-Fe^2+ and free-Zn^2+

SMILES: NCCCC[C@@H]1NC(=O)CNC(=O)[C@H](CCC(=O)NCCCCCCCCNC(=O)COc2cccc3c2C2c4c(OCC(=O)NCCCCCCCCNC(=O)CC[C@@H]5NC(=O)[C@H](CC6CCCCC6)NC(=O)[C@H](CCCCN)NC(=O)[C@H](CCCCN)NC(=O)[C@H](CCCCN)NC(=O)CNC5=O)cccc4C3c3cccc(OCC(=O)NCCCCCCCCNC(=O)CC[C@@H]4NC(=O)[C@H](CC5CCCCC5)NC(=O)[C@H](CCCCN)NC(=O)[C@H](CCCCN)NC(=O)[C@H](CCCCN)NC(=O)CNC4=O)c32)NC(=O)[C@H](CC2CCCCC2)NC(=O)[C@H](CCCCN)NC(=O)[C@H](CCCCN)NC1=O [compound 5] (I: cyclo(KKK[Cha]EG) / II: cyclo(KKK[Cha]EG) / III: cyclo(KKK[Cha]EG); linker I:5-II:5-III:5 via X1)
- EC50 (A549 cells [5]; read-out: EC50 against A549 cells, MTT, incubation 1 h at 37 °C): 9.5 ± 0.1 µM
- EC50 (HeLa-S3 cells [6]; MTT, incubation 1 h at 37 °C): 8.5 ± 0.4 µM
- EC50 (IMR90 cells; MTT, incubation 1 h at 37 °C): > 25 µM
- EC50 (Jurkat cells [7]; MTT, incubation 1 h at 37 °C): 1.6 ± 0.1 µM
- Stability against trypsin digestion (trypsin): negligible decomposition
